{"source": "patent US20140120232A1", "about": "“ACID TASTE/ACID SMELL-REDUCING AGENT” (T. HASEGAWA CO., LTD., priority 2011, published 2014)", "experiment": "Sensory evaluation of Vermont drink containing the agent", "conditions": "ten panels", "method_in_brief": "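Tridecadienal or tridecatrienal isomers added at various concentrations to a Vermont-flavoured drink (apple-cider vinegar, honey, liquid sugar, citric acid, trisodium citrate, 100 mL total). Ten panelists assessed acid taste/acid smell and aldehyde-type off-odour, and the concentration giving the best acid taste/smell quality was selected.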", "data": [{"compound": "CCCCC/C=C\\C/C=C\\C=C\\C=O", "note": "[(E,Z,Z)-2,4,7-tridecatrienal]", "values": [{"measurement": "A: number of panels, acid taste/acid smell extreme and cause irritation", "setting": "0.005 ppt", "value": 10}, {"measurement": "B: number of panels, acid taste/acid smell slightly strong and slightly cause irritation", "setting": "0.005 ppt", "value": 0}, {"measurement": "C: number of panels, acid taste/acid smell slightly unpleasant", "setting": "0.005 ppt", "value": 0}, {"measurement": "Flavor judgment: number of panels who judged acid taste/acid smell quality the highest", "setting": "0.005 ppt", "value": 0}, {"measurement": "N: number of panels, irritation of acid reduced to give a mild acid taste", "setting": "0.005 ppt", "value": 0}, {"measurement": "X: number of panels, acid taste reduced but piercing odor characteristic to aldehydes unpleasant", "setting": "0.005 ppt", "value": 0}, {"measurement": "A: number of panels, acid taste/acid smell extreme and cause irritation", "setting": "0.02 ppt", "value": 8}, {"measurement": "B: number of panels, acid taste/acid smell slightly strong and slightly cause irritation", "setting": "0.02 ppt", "value": 1}, {"measurement": "C: number of panels, acid taste/acid smell slightly unpleasant", "setting": "0.02 ppt", "value": 1}, {"measurement": "Flavor judgment: number of panels who judged acid taste/acid smell quality the highest", "setting": "0.02 ppt", "value": 0}, {"measurement": "N: number of panels, irritation of acid reduced to give a mild acid taste", "setting": "0.02 ppt", "value": 0}, {"measurement": "X: number of panels, acid taste reduced but piercing odor characteristic to aldehydes unpleasant", "setting": "0.02 ppt", "value": 0}, {"measurement": "A: number of panels, acid taste/acid smell extreme and cause irritation", "setting": "0.1 ppt", "value": 7}, {"measurement": "B: number of panels, acid taste/acid smell slightly strong and slightly cause irritation", "setting": "0.1 ppt", "value": 2}, {"measurement": "C: number of panels, acid taste/acid smell slightly unpleasant", "setting": "0.1 ppt", "value": 1}, {"measurement": "Flavor judgment: number of panels who judged acid taste/acid smell quality the highest", "setting": "0.1 ppt", "value": 0}, {"measurement": "N: number of panels, irritation of acid reduced to give a mild acid taste", "setting": "0.1 ppt", "value": 0}, {"measurement": "X: number of panels, acid taste reduced but piercing odor characteristic to aldehydes unpleasant", "setting": "0.1 ppt", "value": 0}, {"measurement": "A: number of panels, acid taste/acid smell extreme and cause irritation", "setting": "0.2 ppt", "value": 4}, {"measurement": "B: number of panels, acid taste/acid smell slightly strong and slightly cause irritation", "setting": "0.2 ppt", "value": 3}, {"measurement": "C: number of panels, acid taste/acid smell slightly unpleasant", "setting": "0.2 ppt", "value": 3}, {"measurement": "Flavor judgment: number of panels who judged acid taste/acid smell quality the highest", "setting": "0.2 ppt", "value": 0}, {"measurement": "N: number of panels, irritation of acid reduced to give a mild acid taste", "setting": "0.2 ppt", "value": 0}, {"measurement": "X: number of panels, acid taste reduced but piercing odor characteristic to aldehydes unpleasant", "setting": "0.2 ppt", "value": 0}, {"measurement": "A: number of panels, acid taste/acid smell extreme and cause irritation", "setting": "0.5 ppt", "value": 0}, {"measurement": "B: number of panels, acid taste/acid smell slightly strong and slightly cause irritation", "setting": "0.5 ppt", "value": 1}, {"measurement": "C: number of panels, acid taste/acid smell slightly unpleasant", "setting": "0.5 ppt", "value": 3}, {"measurement": "Flavor judgment: number of panels who judged acid taste/acid smell quality the highest", "setting": "0.5 ppt", "value": 1}, {"measurement": "N: number of panels, irritation of acid reduced to give a mild acid taste", "setting": "0.5 ppt", "value": 6}, {"measurement": "X: number of panels, acid taste reduced but piercing odor characteristic to aldehydes unpleasant", "setting": "0.5 ppt", "value": 0}, {"measurement": "A: number of panels, acid taste/acid smell extreme and cause irritation", "setting": "1 ppb", "value": 0}, {"measurement": "B: number of panels, acid taste/acid smell slightly strong and slightly cause irritation", "setting": "1 ppb", "value": 0}, {"measurement": "C: number of panels, acid taste/acid smell slightly unpleasant", "setting": "1 ppb", "value": 3}, {"measurement": "Flavor judgment: number of panels who judged acid taste/acid smell quality the highest", "setting": "1 ppb", "value": 0}, {"measurement": "N: number of panels, irritation of acid reduced to give a mild acid taste", "setting": "1 ppb", "value": 3}, {"measurement": "X: number of panels, acid taste reduced but piercing odor characteristic to aldehydes unpleasant", "setting": "1 ppb", "value": 4}, {"measurement": "A: number of panels, acid taste/acid smell extreme and cause irritation", "setting": "1 ppt", "value": 0}, {"measurement": "B: number of panels, acid taste/acid smell slightly strong and slightly cause irritation", "setting": "1 ppt", "value": 1}, {"measurement": "C: number of panels, acid taste/acid smell slightly unpleasant", "setting": "1 ppt", "value": 2}, {"measurement": "Flavor judgment: number of panels who judged acid taste/acid smell quality the highest", "setting": "1 ppt", "value": 3}, {"measurement": "N: number of panels, irritation of acid reduced to give a mild acid taste", "setting": "1 ppt", "value": 7}, {"measurement": "X: number of panels, acid taste reduced but piercing odor characteristic to aldehydes unpleasant", "setting": "1 ppt", "value": 0}, {"measurement": "A: number of panels, acid taste/acid smell extreme and cause irritation", "setting": "5 ppt", "value": 0}, {"measurement": "B: number of panels, acid taste/acid smell slightly strong and slightly cause irritation", "setting": "5 ppt", "value": 0}, {"measurement": "C: number of panels, acid taste/acid smell slightly unpleasant", "setting": "5 ppt", "value": 3}, {"measurement": "Flavor judgment: number of panels who judged acid taste/acid smell quality the highest", "setting": "5 ppt", "value": 3}, {"measurement": "N: number of panels, irritation of acid reduced to give a mild acid taste", "setting": "5 ppt", "value": 7}, {"measurement": "X: number of panels, acid taste reduced but piercing odor characteristic to aldehydes unpleasant", "setting": "5 ppt", "value": 0}, {"measurement": "A: number of panels, acid taste/acid smell extreme and cause irritation", "setting": "10 ppb", "value": 0}, {"measurement": "B: number of panels, acid taste/acid smell slightly strong and slightly cause irritation", "setting": "10 ppb", "value": 0}, {"measurement": "C: number of panels, acid taste/acid smell slightly unpleasant", "setting": "10 ppb", "value": 2}, {"measurement": "Flavor judgment: number of panels who judged acid taste/acid smell quality the highest", "setting": "10 ppb", "value": 0}, {"measurement": "N: number of panels, irritation of acid reduced to give a mild acid taste", "setting": "10 ppb", "value": 3}, {"measurement": "X: number of panels, acid taste reduced but piercing odor characteristic to aldehydes unpleasant", "setting": "10 ppb", "value": 5}, {"measurement": "A: number of panels, acid taste/acid smell extreme and cause irritation", "setting": "20 ppt", "value": 0}, {"measurement": "B: number of panels, acid taste/acid smell slightly strong and slightly cause irritation", "setting": "20 ppt", "value": 0}, {"measurement": "C: number of panels, acid taste/acid smell slightly unpleasant", "setting": "20 ppt", "value": 4}, {"measurement": "Flavor judgment: number of panels who judged acid taste/acid smell quality the highest", "setting": "20 ppt", "value": 3}, {"measurement": "N: number of panels, irritation of acid reduced to give a mild acid taste", "setting": "20 ppt", "value": 6}, {"measurement": "X: number of panels, acid taste reduced but piercing odor characteristic to aldehydes unpleasant", "setting": "20 ppt", "value": 0}, {"measurement": "A: number of panels, acid taste/acid smell extreme and cause irritation", "setting": "50 ppb", "value": 0}, {"measurement": "B: number of panels, acid taste/acid smell slightly strong and slightly cause irritation", "setting": "50 ppb", "value": 0}, {"measurement": "C: number of panels, acid taste/acid smell slightly unpleasant", "setting": "50 ppb", "value": 1}, {"measurement": "Flavor judgment: number of panels who judged acid taste/acid smell quality the highest", "setting": "50 ppb", "value": 0}, {"measurement": "N: number of panels, irritation of acid reduced to give a mild acid taste", "setting": "50 ppb", "value": 2}, {"measurement": "X: number of panels, acid taste reduced but piercing odor characteristic to aldehydes unpleasant", "setting": "50 ppb", "value": 7}, {"measurement": "A: number of panels, acid taste/acid smell extreme and cause irritation", "setting": "100 ppt", "value": 0}, {"measurement": "B: number of panels, acid taste/acid smell slightly strong and slightly cause irritation", "setting": "100 ppt", "value": 2}, {"measurement": "C: number of panels, acid taste/acid smell slightly unpleasant", "setting": "100 ppt", "value": 3}, {"measurement": "Flavor judgment: number of panels who judged acid taste/acid smell quality the highest", "setting": "100 ppt", "value": 0}, {"measurement": "N: number of panels, irritation of acid reduced to give a mild acid taste", "setting": "100 ppt", "value": 4}, {"measurement": "X: number of panels, acid taste reduced but piercing odor characteristic to aldehydes unpleasant", "setting": "100 ppt", "value": 1}, {"measurement": "A: number of panels, acid taste/acid smell extreme and cause irritation", "setting": "500 ppt", "value": 0}, {"measurement": "B: number of panels, acid taste/acid smell slightly strong and slightly cause irritation", "setting": "500 ppt", "value": 0}, {"measurement": "C: number of panels, acid taste/acid smell slightly unpleasant", "setting": "500 ppt", "value": 3}, {"measurement": "Flavor judgment: number of panels who judged acid taste/acid smell quality the highest", "setting": "500 ppt", "value": 0}, {"measurement": "N: number of panels, irritation of acid reduced to give a mild acid taste", "setting": "500 ppt", "value": 4}, {"measurement": "X: number of panels, acid taste reduced but piercing odor characteristic to aldehydes unpleasant", "setting": "500 ppt", "value": 3}]}]}
